{
  "source": "patent US7476670B2",
  "about": "“Purine derivatives, method for preparing, pharmaceutical compositions and novel use” (Aventis Pharma S.A., priority 2003, dated 2009)",
  "key": {"SRC kinase": {"biological_target": "T1, SRC kinase (Homo sapiens, UniProt P12931)", "T1 construct": "purchased Upstate Biotechnology 14-117", "T1 sequence (P12931 whole entry)": "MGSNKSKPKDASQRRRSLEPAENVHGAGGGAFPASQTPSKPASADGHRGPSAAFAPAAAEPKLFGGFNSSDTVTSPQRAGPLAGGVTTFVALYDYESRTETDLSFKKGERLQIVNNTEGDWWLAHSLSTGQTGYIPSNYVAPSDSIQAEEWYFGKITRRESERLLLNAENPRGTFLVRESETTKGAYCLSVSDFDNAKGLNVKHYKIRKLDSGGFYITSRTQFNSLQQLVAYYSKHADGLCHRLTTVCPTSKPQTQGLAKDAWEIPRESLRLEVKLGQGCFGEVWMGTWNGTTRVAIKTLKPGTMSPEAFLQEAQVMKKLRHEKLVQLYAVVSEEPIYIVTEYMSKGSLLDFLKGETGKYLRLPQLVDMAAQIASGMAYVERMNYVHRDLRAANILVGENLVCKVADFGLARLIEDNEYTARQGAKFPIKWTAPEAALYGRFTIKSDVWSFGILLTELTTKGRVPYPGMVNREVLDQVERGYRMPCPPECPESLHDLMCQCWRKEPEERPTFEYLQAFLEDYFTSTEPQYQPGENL", "experiment": "Assay for inhibition of SRC kinase activity", "format": "biochemical", "details": "fluorescence polarization, read-out: percentage inhibition at 20 μM", "outline": "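Enzyme (12 U/ml final) preincubated 5 min with inhibitor, then PolyGluTyr 4/1 (150 ng/ml) and ATP (5 μM) added in HEPES/NaOH pH 7.6 with MgCl2, MnCl2 and Na2VO4. After 20 min at ambient temperature, phosphopeptide detected by fluorescence polarization with labelled anti-phosphopeptide antibody; percent inhibition reported at 20 μM.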"}, "[1]": {"biological_target": "Cyclin Dependent kinase 1 (CDK1) (Homo sapiens, UniProt P06493)", "sequence (P06493 whole entry, species assumed)": "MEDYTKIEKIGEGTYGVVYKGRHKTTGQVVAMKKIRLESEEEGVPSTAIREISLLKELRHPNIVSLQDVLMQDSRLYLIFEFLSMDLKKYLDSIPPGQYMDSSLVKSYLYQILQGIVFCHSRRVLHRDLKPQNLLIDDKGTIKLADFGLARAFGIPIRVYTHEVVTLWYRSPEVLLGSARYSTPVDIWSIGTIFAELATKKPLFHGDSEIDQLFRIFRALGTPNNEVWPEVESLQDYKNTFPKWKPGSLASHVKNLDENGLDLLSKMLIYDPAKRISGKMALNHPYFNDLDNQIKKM", "sequence (P14635 whole entry partner, species assumed)": "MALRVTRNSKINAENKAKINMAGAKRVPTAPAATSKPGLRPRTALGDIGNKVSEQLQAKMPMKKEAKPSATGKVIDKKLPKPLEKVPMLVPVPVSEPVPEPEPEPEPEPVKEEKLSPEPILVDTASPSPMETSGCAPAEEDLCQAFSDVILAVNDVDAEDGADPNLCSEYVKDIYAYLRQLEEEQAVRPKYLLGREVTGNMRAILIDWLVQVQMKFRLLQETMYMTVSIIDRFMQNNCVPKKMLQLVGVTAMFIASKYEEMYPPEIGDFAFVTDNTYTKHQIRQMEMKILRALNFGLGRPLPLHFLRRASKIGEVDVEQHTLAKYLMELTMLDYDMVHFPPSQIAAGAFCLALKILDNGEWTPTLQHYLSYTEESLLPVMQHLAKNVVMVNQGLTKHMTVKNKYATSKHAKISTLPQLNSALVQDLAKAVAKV", "experiment": "Assay for inhibition of CDK1 activity", "format": "biochemical", "details": "[33P]ATP, read-out: percentage inhibition at 20 μM", "method": "The inhibition of the kinase activity of Cyclin Dependent kinase 1 (CDK1) is determined by measuring the phosphorylation of its substrate peptide.\nThe test is carried out in a final volume of 50 μl.\n(§1) The incubation buffer is as follows:\n• 50 mM Tris/HCl pH 7.5 • 10 mM MgCl2 • […] Na2VO4 • 2 mM DTT • 40 mM Beta-glycerophosphate • 0.1 mg/ml BSA 5 μl of the 10-times concentrated inhibitor are added to 25 μl of incubation buffer containing 0.04 U/μl final concentration of the enzyme; 10 μl of incubation buffer containing 12.5 μM final concentration of peptide substrate are then added and, finally, 10 μl of incubation buffer containing 50 μM ATP and radiolabeled ATP, [^33P]ATP (0.5 μCi), are added. The reaction is stopped after incubation for 40 minutes at ambient temperature. • Results obtained expressed as percentage inhibition at 20 μM • Example 8 93% • Example 30 99% 5) Assay for Inhibition of Abl Activity"}, "Casein Kinase II": {"test_system": "Casein Kinase II", "experiment": "Assay for inhibition of casein kinase II activity", "format": "biochemical", "details": "[33P]ATP", "method": "The inhibition of the kinase activity is determined by measuring the phosphorylation of its substrate peptide.\nThe assay is carried out in a final volume of 50 μl.\nas §1\n• 30 mM MES pH 6.9 • 15 mM MgCl2 • 195 mM KCl • 7.25 mM DTT 5 μl of the 10-times concentrated inhibitor are added to 25 μl of incubation buffer containing 1 U/μl final concentration of the enzyme (Tebu, SE-124); 10 μl of incubation buffer containing 60 μM final concentration of peptide substrate are then added, and, finally, 10 μl of incubation buffer containing 25 μM ATP and radiolabeled ATP, [^33P]ATP (0.25 μCi), are added. The reaction is stopped after incubation for 30 minutes at ambient temperature. • Results obtained expressed as percentage inhibition at 20 μM • Example 8 93% • Example 30 97% 8) Assay for Inhibition for CAN Kinase II Activity"}, "FAK": {"biological_target": "FAK (Homo sapiens, UniProt Q05397)", "sequence (Q05397 whole entry, species assumed)": "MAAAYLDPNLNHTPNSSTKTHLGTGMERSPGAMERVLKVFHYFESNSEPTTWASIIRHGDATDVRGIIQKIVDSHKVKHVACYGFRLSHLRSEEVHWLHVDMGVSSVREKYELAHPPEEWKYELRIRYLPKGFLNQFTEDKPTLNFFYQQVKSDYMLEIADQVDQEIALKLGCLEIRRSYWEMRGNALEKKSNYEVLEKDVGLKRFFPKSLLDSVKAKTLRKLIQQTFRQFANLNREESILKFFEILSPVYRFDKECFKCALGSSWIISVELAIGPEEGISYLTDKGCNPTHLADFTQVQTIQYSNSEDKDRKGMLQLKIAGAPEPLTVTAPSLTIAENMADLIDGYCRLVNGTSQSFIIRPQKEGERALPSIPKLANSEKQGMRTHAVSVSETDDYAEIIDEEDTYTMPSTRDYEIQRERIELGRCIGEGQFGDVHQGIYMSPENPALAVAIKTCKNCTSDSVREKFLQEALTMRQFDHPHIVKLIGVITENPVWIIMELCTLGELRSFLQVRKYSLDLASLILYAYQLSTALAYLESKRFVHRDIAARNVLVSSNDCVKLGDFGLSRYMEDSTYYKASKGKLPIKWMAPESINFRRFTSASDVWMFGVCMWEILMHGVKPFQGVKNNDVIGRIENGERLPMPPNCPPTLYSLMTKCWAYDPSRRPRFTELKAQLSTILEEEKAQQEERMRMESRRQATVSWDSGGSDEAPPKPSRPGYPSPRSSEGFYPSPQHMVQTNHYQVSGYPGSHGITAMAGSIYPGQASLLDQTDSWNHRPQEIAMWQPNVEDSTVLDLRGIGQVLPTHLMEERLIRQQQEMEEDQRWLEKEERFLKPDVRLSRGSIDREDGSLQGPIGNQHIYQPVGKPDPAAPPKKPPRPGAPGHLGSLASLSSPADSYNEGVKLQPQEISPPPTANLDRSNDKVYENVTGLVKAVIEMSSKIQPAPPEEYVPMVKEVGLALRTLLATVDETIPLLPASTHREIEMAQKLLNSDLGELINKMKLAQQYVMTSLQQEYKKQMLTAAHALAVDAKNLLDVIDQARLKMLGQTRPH", "experiment": "Assay for inhibition of FAK activity (autophosphorylation)", "format": "biochemical", "details": "fluorescence polarization, ATP 1 μM; read-out: IC50s expressed as micromolar", "method": "The inhibition of the kinase activity is determined by fluorescence polarization, the autophosphorylation of FAK is detected by adding an anti-phosphoprotein antibody coupled to a fluorescent label.\nThe assay is carried out in a final volume of 30 μl; all the reagents are prepared in a buffer: • 50 mM HEPES pH 7.5 • 0.03% triton X100 • 10 mM MgCl2 • 5% Glycerol • 1 mM DTT 10 μl of the 10-times concentrated inhibitor are added to 5 μl of enzyme (100 ng final concentration), and 5 μl of incubation buffer and 10 μl of ATP (1 μM final concentration) are added."}, "Candida albicans": {"test_system": "Candida albicans", "experiment": "Minimum inhibitory concentration in liquid medium, micro method (NCCLS M27-A)", "format": "cell-based", "details": "at least 80% inhibition of growth, read after 24-48 h at 37° C., RPMI 1640, read-out: MIC Candida albicans", "method": "(§2) The assay is carried out in a final volume of 40 μl; all the reagents are prepared in a buffer: • 50 mM HEPES pH 7.5 • 0.03% triton X100 • 10 mM MgCl2 • 5% Glycerol • 1 mM DTT 10 μl of the 10-times concentrated inhibitor are added to 5 μl of enzyme (75 ng final concentration), and 5 μl of peptide (1 μM final concentration), then 2.5 μl of incubation buffer containing 40 μM ATP and 2.5 μl of radiolabeled ATP, [^33P]ATP (500 nCi), are added. After incubation for 15 minutes at ambient temperature, 10 μl of incubation buffer containing 192 nM of substrate. […] Reference method for broth dilution antifungal susceptibility testing of yeasts. Approved Standard M27-A. NCCLS, Villanova, Pa.); the minimum concentration with which a visible decrease is observed in the cloudiness of the cell growth (at least 80% compared to a control without product) is the Minimum Inhibitory Concentration (MIC) of the antifungal agent with respect to the strain tested.\n(§3) RPMI 1640 medium (liquid) without L-glutamine is supplemented with L-glutamine (0.3 g/l or 10.5 ml of a solution at 200 mM) and buffered with 34.54 g/l (0.165 M) of morpholinepropanesulfonic acid (MOPS). The medium is sterilized by filtration. 100 μl of RPMI medium are distributed into each well of a 96-well plate. The appropriate volume. of the antifungal solution is distributed in the first column of the microplate and supplemented with 200 μl of medium. Doubling dilutions are made so as to establish a range of 11 concentrations in each line of the microplate. The 12th well of each row will serve as a growth control. The cell suspension is prepared from a culture (liquid or agar) or from a frozen vial, and is diluted in RPMI medium so as to obtain a cell suspension at 5×10^3−2×10^4 cells/ml. 100 μl of the cell suspension are distributed in the microplate. For all species of Candida, the MIC is read after 24-48 h, and for Cryptococcus and Aspergillus after 48-72 h, of incubation at 37° C. in a normal atmosphere. The MIC is read by visual reading, determining the well which contains the lowest dose of antifungal agent which causes at least 80% inhibition of the growth of the fungus."}, "Candida glabrata": {"test_system": "Candida glabrata", "experiment": "Minimum inhibitory concentration in liquid medium, micro method (NCCLS M27-A)", "format": "cell-based", "details": "Nakaseomyces glabratus; at least 80% inhibition of growth, read after 24-48 h at 37° C., RPMI 1640; read-out: MIC Candida glabrata", "method": "as §2, §3"}},
  "note": "pIC50: −log10 of the molar value.",
  "data": [
    {"smiles": "Cl.N[C@H]1CC[C@H](Nc2nc(-n3cnc4cc(Cl)c(Cl)cc43)c3nc[nH]c3n2)CC1", "note": "[Example 8, Trans-N-[6-(5,6-dichloro-1H-benzimidazol-1-yl)-9H-purin-2-yl]-1,4-cyclohexanediamine hydrochloride]", "values": [
      {"measurement": "inhibition at 20 µM", "setting": "SRC kinase", "result": 98, "unit": "%"},
      {"measurement": "inhibition at 20 µM", "setting": "[1]", "result": 93, "unit": "%"},
      {"measurement": "percentage inhibition at 20 μM", "setting": "Casein Kinase II", "result": 93, "unit": "%"},
      {"measurement": "pIC50", "setting": "FAK", "result": 5.70},
      {"measurement": "MIC", "setting": "Candida albicans", "result": 16, "unit": "µg/mL"},
      {"measurement": "MIC", "setting": "Candida glabrata", "result": 16, "unit": "µg/mL"}
    ]},
    {"smiles": "Cl.Cl.N[C@H]1CC[C@H](Nc2nc(N3CCc4cc([N+](=O)[O-])ccc43)c3nc[nH]c3n2)CC1", "note": "[Example 30, Trans-N-[6-(2,3-dihydro-5-nitro-1H-indol-1-yl)-9H-purin-2-yl]-1,4-cyclohexanediamine dihydrochloride]", "values": [
      {"measurement": "inhibition at 20 µM", "setting": "SRC kinase", "result": 99, "unit": "%"},
      {"measurement": "inhibition at 20 µM", "setting": "[1]", "result": 99, "unit": "%"},
      {"measurement": "percentage inhibition at 20 μM", "setting": "Casein Kinase II", "result": 97, "unit": "%"},
      {"measurement": "pIC50", "setting": "FAK", "result": 6.00},
      {"measurement": "MIC", "setting": "Candida albicans", "result": 32, "unit": "µg/mL"},
      {"measurement": "MIC", "setting": "Candida glabrata", "result": 64, "unit": "µg/mL"}
    ]}
  ]
}
